Source: PMC9939292, “Cefoselis enhances breast cancer chemosensitivity by directly targeting GRP78/LRP5 signalling of cancer stem cells” (Clinical and Translational Medicine, 2023)

Molecular target: T1, recombinant GRP78 protein (Homo sapiens, UniProt P11021)
T1 construct: gene HSPA5; recombinant GRP78
Experiment: isothermal titration calorimetry; also SPR small molecule microarray
Assay type: binding
Description: isothermal titration calorimetry; also SPR small molecule microarray on recombinant GRP78 protein | measure the binding affinity of cefoselis with the recombinant GRP78 protein

T1 sequence (P11021 19-654): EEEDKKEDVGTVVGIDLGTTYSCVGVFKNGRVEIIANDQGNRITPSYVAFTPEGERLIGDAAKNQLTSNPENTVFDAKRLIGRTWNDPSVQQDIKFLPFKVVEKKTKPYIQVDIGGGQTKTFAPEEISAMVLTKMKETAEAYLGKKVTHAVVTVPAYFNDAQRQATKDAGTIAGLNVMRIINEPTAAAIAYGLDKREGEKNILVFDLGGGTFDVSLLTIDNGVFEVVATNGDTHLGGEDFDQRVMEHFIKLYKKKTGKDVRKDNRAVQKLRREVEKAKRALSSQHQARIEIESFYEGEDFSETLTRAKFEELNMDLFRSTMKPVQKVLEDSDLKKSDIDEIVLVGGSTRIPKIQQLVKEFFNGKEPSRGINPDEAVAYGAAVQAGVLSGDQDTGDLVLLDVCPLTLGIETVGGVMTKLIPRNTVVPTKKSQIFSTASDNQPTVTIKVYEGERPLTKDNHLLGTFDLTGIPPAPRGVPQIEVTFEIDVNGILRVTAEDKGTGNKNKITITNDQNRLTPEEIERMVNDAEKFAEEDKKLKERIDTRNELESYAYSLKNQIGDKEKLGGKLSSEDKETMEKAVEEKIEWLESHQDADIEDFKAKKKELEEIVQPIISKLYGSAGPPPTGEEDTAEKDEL

Kd: 463 nM
SMILES: CO/N=C(\C(=O)N[C@@H]1C(=O)N2C(C(=O)[O-])=C(C[n+]3ccc(N)n3CCO)CS[C@H]12)c1csc(N)n1 [cefoselis]
